Assays:
PDAC KRAS^AMP models = experiment: RMC-6236 plus chemotherapy in PDAC KRAS^AMP models; type: in vivo; details: FIG. 4
pERK (MAPK signaling) = pERK (MAPK signaling) levels in KRAS mutant cell lines; type: cell-based; details: FIG. 6
PIP3 levels = PIP3 levels in KRAS-mutant PDAC lines; type: cell-based; details: KRAS^G12D-mutant PDAC lines; FIG. 5 right
PI3K activity = PI3K activity in KRAS wild-type and KRAS^G12X mutant lines; type: cell-based; details: for PI3K activity: FIG. 5 left

SMILES | activity and durability in combination (PDAC KRAS^AMP models; combined with FOLFIRINOX) | activity and durability in combination (PDAC KRAS^AMP models; combined with GEM+Abraxane) | monotherapy activity versus chemotherapy (PDAC KRAS^AMP models; monotherapy, EGFR-mutant PDAC (so in the source)) | levels of pERK (MAPK signaling) (pERK (MAPK signaling); KRAS^G12D mutant cell lines) | levels of pERK (MAPK signaling) (pERK (MAPK signaling); KRAS^G12R mutant cell lines) | PIP3 levels (PIP3 levels) | PI3K activity (PI3K activity; KRAS^G12C) | PI3K activity (PI3K activity; KRAS^G12D) | PI3K activity (PI3K activity; KRAS^G12R line) | PI3K and MAPK activity (summary statement) (PI3K activity; KRAS^G12R lines) | PI3K activity (PI3K activity; KRAS^G12V) | PI3K activity (PI3K activity; KRAS^WT) | PI3K and MAPK activity (summary statement) (PI3K activity; isogenic and mutant KRAS^G12D lines)
CCn1c(-c2cc(N3CCN(C)CC3)cnc2[C@H](C)OC)c2c3cc(ccc31)-c1csc(n1)C[C@H](NC(=O)[C@H]1C[C@@H]1C)C(=O)N1CCC[C@H](N1)C(=O)OCC(C)(C)C2 [RMC-6236] | combination benefit resulting in increased activity and durability | combination benefit resulting in increased activity and durability | comparable activity against EGFR-mutant PDAC as chemotherapy |  |  |  |  |  |  |  |  |  | 
CCn1c(-c2cc(N3CCN(C4CC4)CC3)cnc2[C@H](C)OC)c2c3cc(ccc31)-c1csc(n1)C[C@H](NC(=O)C1[C@H]3COC[C@@H]13)C(=O)N1CCC[C@H](N1)C(=O)OCC(C)(C)C2 (stereo partly shown) [RMC-7977] |  |  |  | decreased | decreased | suppresses | moderate inhibitory effect | completely suppressed | no effect | not | moderate inhibitory effect | completely suppressed | suppresses both PI3K and MAPK activity

Reference: US20260053798A1, “COMBINATION THERAPY FOR A RAS RELATED DISEASE OR DISORDER” (Revolution Medicines, Inc., priority 2023, published 2026)
